Measured values: the supplement of paper PMC10307832

Tests used:
Assay in all cases: relative viability (nuclei count vs DMSO), 5 days (fraction); higher = more cells survive
Carboplatin + Bortezomib = compound: C1CC(C1)(C(=O)O)C(=O)O.[NH2-].[NH2-].[Pt+2] [Carboplatin] + CC(C)C[C@H](NC(=O)[C@H](Cc1ccccc1)NC(=O)c1cnccn1)B(O)O [Bortezomib] (partner 0.002 µM)
Method in brief: (§1)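 Lung cancer cell lines in 1536-well plates got either a single drug or a fixed anchor-drug dose together with five library-drug doses (not always all listed) in √10 steps, by pin tool, on the day after seeding. Nuclei were counted after 5 days, and relative viability is the treated-to-vehicle ratio of nuclei counts. Values are medians of duplicate plates.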

Carboplatin + Linsitinib = compound: C1CC(C1)(C(=O)O)C(=O)O.[NH2-].[NH2-].[Pt+2] [Carboplatin] + C[C@]1(O)C[C@@H](c2nc(-c3ccc4ccc(-c5ccccc5)nc4c3)c3c(N)nccn32)C1 [Linsitinib] (partner 1 µM)
Method in brief: as §1

Carboplatin + Phenformin = compound: C1CC(C1)(C(=O)O)C(=O)O.[NH2-].[NH2-].[Pt+2] [Carboplatin] + N=C(N)NC(=N)NCCc1ccccc1 [Phenformin] (partner 250 µM)
Method in brief: as §1

MLN4924 + Dasatinib = compound: NS(=O)(=O)OC[C@@H]1C[C@@H](n2ccc3c(N[C@H]4CCc5ccccc54)ncnc32)C[C@@H]1O [MLN4924] + Cc1nc(Nc2ncc(C(=O)Nc3c(C)cccc3Cl)s2)cc(N2CCN(CCO)CC2)n1 [Dasatinib] (partner 0.075 µM)
Method in brief: as §1

| Cell Line | relative viability (Carboplatin + Bortezomib; first compound 0.08 µM) | relative viability (Carboplatin + Bortezomib; first compound 0.253 µM) | relative viability (Carboplatin + Bortezomib; first compound 0.8 µM) | relative viability (Carboplatin + Bortezomib; first compound 2.53 µM) | relative viability (Carboplatin + Bortezomib; first compound 8 µM) | relative viability (Carboplatin + Linsitinib; first compound 0.08 µM) | relative viability (Carboplatin + Linsitinib; first compound 0.253 µM) | relative viability (Carboplatin + Linsitinib; first compound 0.8 µM) | relative viability (Carboplatin + Linsitinib; first compound 2.53 µM) | relative viability (Carboplatin + Linsitinib; first compound 8 µM) | relative viability (Carboplatin + Phenformin; first compound 0.08 µM) | relative viability (Carboplatin + Phenformin; first compound 0.253 µM) | relative viability (Carboplatin + Phenformin; first compound 0.8 µM) | relative viability (Carboplatin + Phenformin; first compound 2.53 µM) | relative viability (Carboplatin + Phenformin; first compound 8 µM) | relative viability (MLN4924 + Dasatinib; first compound 0.04 µM) | relative viability (MLN4924 + Dasatinib; first compound 0.1265 µM) | relative viability (MLN4924 + Dasatinib; first compound 0.4 µM) | relative viability (MLN4924 + Dasatinib; first compound 1.265 µM) | relative viability (MLN4924 + Dasatinib; first compound 4 µM) |
| --- | --- | --- | --- | --- | --- | --- | --- | --- | --- | --- | --- | --- | --- | --- | --- | --- | --- | --- | --- | --- |
| NCI-H1651 | 0.92 | 0.967 | 0.927 | 0.872 | 0.761 | 0.918 | 1.06 | 0.82 | 0.9 | 0.509 | 0.386 | 0.335 | 0.288 | 0.272 | 0.218 | 0.411 | 0.473 | 0.431 | 0.167 | 0.116 |
| LC-2-ad | 1.09 | 1.1 | 1.11 | 0.985 | 0.831 | 0.903 | 0.859 | 0.808 | 0.752 | 0.721 | 0.661 | 0.551 | 0.525 | 0.517 | 0.386 | 0.551 | 0.408 | 0.498 | 0.144 | 0.2 |
| NCI-H1734 | 0.97 | 0.885 | 0.921 | 0.888 | 0.849 | 0.823 | 0.904 | 0.909 | 0.876 | 0.851 | 0.463 | 0.479 | 0.364 | 0.356 | 0.364 | 0.636 | 0.588 | 0.305 | 0.0902 | 0.102 |
| NCI-H460 | 1.22 | 1.06 | 0.895 | 0.812 | 0.174 | 0.907 | 0.803 | 0.739 | 0.445 | 0.184 | 0.548 | 0.507 | 0.504 | 0.404 | 0.122 | 0.495 | 0.657 | 0.849 | 0.377 | 0.0538 |
| NCI-H838 | 1.06 | 0.858 | 0.869 | 0.835 | 0.82 | 1.03 | 1.09 | 0.961 | 0.958 | 1 | 0.707 | 0.587 | 0.603 | 0.601 | 0.603 | 0.268 | 0.271 | 0.245 | 0.199 | 0.219 |
| NCI-H2347 | 1.22 | 0.815 | 1.13 | 1.05 | 0.768 | 1.05 | 1.04 | 0.967 | 0.893 | 0.841 | 0.36 | 0.382 | 0.583 | 0.534 | 0.324 | 0.265 | 0.369 | 0.231 | 0.218 | 0.244 |
| NCI-H647 | 1.03 | 1.24 | 0.952 | 1.07 | 0.686 | 1.41 | 1.24 | 1.11 | 0.932 | 0.503 | 0.555 | 0.66 | 0.422 | 0.55 | 0.452 | 0.235 | 0.195 | 0.113 | 0.0353 | 0.0361 |
| NCI-H520 | 0.611 | 0.609 | 0.767 | 0.599 | 0.523 | 0.997 | 1.09 | 1.02 | 0.943 | 0.784 | 0.677 | 0.595 | 0.725 | 0.585 | 0.54 | 0.216 | 0.225 | 0.253 | 0.171 | 0.173 |
